Results taken from patent publication US4426377A, “Clavulanic acid derivatives their preparation and use” (Beecham Group Limited, priority 1977, dated 1984).
Blank lines part the entries; values can stand above or below the molecule they belong to.

Legend:
[1] = tested on: gram negative bacteria such as Escherichia and Klebsiella and gram positive bacteria such as Staphylococcus; assay: summary of synergism with penicillins; conditions: against gram negative and gram positive bacteria
Description: (§1) a. Sub-cutanvenous administration: Groups of mice were infected inter peritoneally with Escherichia coli JT39. At 1 and 5 hours post infection the mice were treated with amoxycillin (Amox.) or with amoxycillin and synergist. The solutions were made up in phosphate buffer. The results were as follows:
(§2) b. Oral administration: Groups of mice were infected inter peritoneally with Escherichia coli JT39. At 1, 3 and 5 hours post-infection the mice were treated with amoxycillin or with amoxycillin and synergist. The solutions were made up in phosphate buffer.

[2] = signs of drug toxicity during the in-vivo tests; conditions: during the in-vivo tests in mice
Description: as §1, §2

Escherichia coli JT 39 = assay: CD50 in intraperitoneal Escherichia coli JT 39 infection in mice, sub-cutaneous dosing (Demonstration 2); assay type: in vivo, mice infected with Escherichia coli; conditions: with amoxycillin, E. coli JT 39 infection in mice
Description: b. […] Dosing was sub-cutaneous and 1 and 5 hours post infection.

Proteus C 889 = assay: microliter MIC test, Proteus C 889; assay type: cell-based; conditions: for MIC of ampicillin with title compound: trailing end point
Description: (§3) a. The antibacterial and synergistic activity of the title compound (referred to as "Synergist" in the Table) was determined by a conventional microliter method.

E. Coli JT 410 = assay: microliter MIC test, E. coli JT 410; assay type: cell-based, Escherichia coli
Description: as §3

Kleb. E 70 = assay: microliter MIC test, Kleb. E 70; assay type: cell-based, Klebsiella
Description: as §3

Staph. Russell = assay: microliter MIC test, Staph. Russell; assay type: cell-based, Staphylococcus
Description: as §3

SMILES: O=C1CC(OC/C=C2\O[C@@H]3CC(=O)N3[C@H]2C(=O)O)N1 (some centres unmarked) [Example 2, Sodium 9-O-(azetidin-2'-on-4'-yl)clavulanate]
synergism with penicillins such as amoxycillin [1]: effective synergist for penicillins such as amoxycillin against gram negative bacteria such as Escherichia and Klebsiella and gram positive bacteria such as Staphylococcus
signs of drug toxicity [2]: No signs of drug toxicity were observed

SMILES: CC(NC=O)OC/C=C1\O[C@@H]2CC(=O)N2[C@H]1C(=O)O (some centres unmarked) [Example 9, Lithium 9-O-(1-formamidoethyl)clavulanate]
effect on the effectiveness of amoxycillin (Escherichia coli JT 39): found to enhance the effectiveness of amoxycillin

MIC of ampicillin with title compound (Proteus C 889; Amp. + 1 μg/ml of the compound): 8 µg/mL
MIC of ampicillin with title compound (Proteus C 889; Amp. + 5 μg/ml of the compound): 2 µg/mL
MIC (Proteus C 889; alone): 250 µg/mL
MIC of ampicillin with title compound/synergist (E. Coli JT 410; Amp. + 5 μg/ml of the compound): 62.5 µg/mL
MIC (E. Coli JT 410; alone): 62.5 µg/mL
MIC of ampicillin with title compound/synergist (Kleb. E 70; Amp. + 1 μg/ml of the compound): 6.25 µg/mL
MIC of ampicillin with title compound/synergist (Kleb. E 70; Amp. + 5 μg/ml of the compound): 1.5 µg/mL
MIC (Kleb. E 70; alone): 62.5 µg/mL
MIC of ampicillin with title compound/synergist (Staph. Russell; Amp. + 1 μg/ml of the compound): 1.25 µg/mL
MIC of ampicillin with title compound/synergist (Staph. Russell; Amp. + 5 μg/ml of the compound): 0.15 µg/mL
MIC (Staph. Russell; alone): 8 µg/mL
SMILES: NCC(=O)NCOCC=C1OC2CC(=O)N2C1C(=O)O (centres unmarked) [Example 11, 9-O-(Glycylaminomethyl)clavulanic acid]
